Key:
Assay type in all cases: cell-based
143B CytB cells = assay: GC-MS of AKB and AHB concentration in the media during proliferation assay; conditions: media of 143B CytB cells proliferating with AKB
Protocol: FIG. 1. Cytochrome B mutant 143B cybrid cells are auxotrophic for oxidized substrates that can regenerate NAD^+. (A) Proliferation rate of 143B CytB cells was determined in the presence or absence of pyruvate. (left) Cells were normalized to cell number at t=0 when media conditions were applied. (B) A major fate of pyruvate is as a substrate of lactate dehydrogenase (LDH) where it accepts electrons from NADH to produce NAD^+ and lactate. (C) α-Ketobutyrate (AKB) can act as an alternative electron acceptor substrate for LDH, yielding NAD^+ α-hydroxybutyrate (AHB). (D) Proliferation rate for 143B CytB cells in the presence or absence of AKB was determined as in (A). (E) Intracellular ratio of NAD^+/NADH was determined in 143B CytB cells in untreated media or in the presence of pyruvate (Pyr) or AKB. (F) The concentration of AKB and AHB in the media was determined by GC-MS analysis for each day of a proliferation assay of 143B CytB cells in the presence of AKB as in (D). […]
Given the chemical structure differences between AKB and pyruvate, they cannot share direct carbon-fates, thus we reasoned that AKB is likely being used predominantly as an electron acceptor and not as a carbon substrate in metabolic pathways. To verify this we measured the consumption rate of AKB and the excretion rate of the reduced product, α-hydroxybutyrate (AHB), formed upon NAD^+ regeneration (FIG. 1C). […]

143B cells [1] = assay: Mitochondrial oxygen consumption (Seahorse XF24), cells treated with respiration inhibitors; conditions: ETC inhibitors plus AKB
Protocol: Oxygen consumption rates were determined on a Seahorse Bioscience Extracellular Flux Analyzer (XF24). Cells were plated in Seahorse Bioscience 24 well plates at 6E4 cells per well in 100 μL complete DMEM, allowed to attach for 1 hour, and 500 μl complete DMEM was added before overnight incubation. The following day cells were washed 2 times in assay media: DMEM without phenol red or pyruvate containing 0.5% dialyzed FBS and 0.1 mg/mL uridine at pH 7.4 and incubated in 500 μL of the same media for the assay.

143B cells [2] = assay: Measurement of NAD+/NADH (NAD/NADH Glo) in 143B cells with respiration inhibitors; conditions: 143B cells, ETC inhibitors plus AKB, 6 hours
Protocol: NAD^+/NADH measurements were done using a modified version of manufacturer instructions of NAD/NADH Glo Assay (Promega). Cells were plated and treated as for proliferation assays and cell extracts were taken 6 hours after treatment. For extraction, cells were quickly washed 3 times in ice cold PBS, extracted in 100 μL ice cold lysis buffer (1% Dodecyltrimethylammonium bromide (DTAB) in 0.2 N NaOH diluted 1:1 with PBS), and immediately frozen at −80° C. To measure NADH, 20 μL of sample was moved to PCR tubes and incubated at 75° C. for 30 min, where the basic conditions will selectively degrade NAD^+. To measure NAD^+, 20 μL of the samples was moved to PCR tubes containing 20 μL lysis buffer and 20 μL 0.4 N HCl and incubated at 60° C. for 15 min, where acidic conditions will degrade NADH. Following incubations, samples were allowed to equilibrate to room temperature and then quenched by neutralizing with 20 μL 0.25 M Tris in 0.2 N HCl (NADH) or 20 μL 0.5 M Tris base (NAD^+). Manufacturer instructions were followed thereafter to measure NAD^+/NADH.

CCC(=O)C(=O)O [AKB, α-ketobutyrate]
Consumption rate of AKB versus excretion rate of AHB (143B CytB cells): the consumption rate of AKB matched the excretion rate of AHB
O2 consumption (143B cells [1]): no effect on O2 consumption
Cellular NAD+/NADH ratio (143B cells [2]): restored NAD^+/NADH
